≈ marks a conversion by molar mass, not a printed value. Entries after “also recorded” stand apart in the source; their conditions may differ.
Columns and labels:
[1] = system: peritoneal carcinomatosis (Pro b cells); assay: In vivo anti-tumor activity against peritoneal carcinomatosis in BDIX rats; conditions: for Number of rats with carcinomatoses of class 0 / Number of rats with carcinomatoses of class 1 / Number of rats with carcinomatoses of class 2 / Number of rats with carcinomatoses of class 3 / Number of rats with carcinomatoses of class 4: 10 rats, 6 weeks; for Number of rats with carcinomatoses of class 0: class 0: no tumor nodules visible; for Number of rats with carcinomatoses of class 1: class 1: a few nodules less than 0.2 cm; for Number of rats with carcinomatoses of class 2: class 2: nodules too many to be counted, up to 0.5 cm; for Number of rats with carcinomatoses of class 3: class 3: tumors up to 1 cm; for Number of rats with carcinomatoses of class 4: class 4: cavity entirely invaded by tumors
Method: The in vivo biological activity of disaccharide A was investigated for anti-tumor activity against peritoneal carcinomatosis induced in BDIX rats. Pro b cells obtained according to the method of Martin (Martin, F. et al, International Journal of Cancer, Volume 32, pages 623-627 [1983]) were injected intraperitoneally in rat (10^6 cells per rat). After 10 days numerous solid nodules appear in the mesenterium in the milky spots and progressively invade the peritoneal cavity (see Lagadec, P. et al, Invasion and Metastasis, Volume 7, pages 83-95 [1987]). Hemorrhagic ascitis appeared after 4-5 weeks and all rats died within 8-12 weeks.
Immunotherapy started 14 days after injection of the tumoral Pro b cells. The treatment consisted of intraperitoneal injections of disaccharide A; doses 0.1, 0.3 and 0.8 mg/kg bodyweight. Disaccharide A was dissolved in an aqueous solution of 0.9% NaCl and 0.1% triethylamine. The rats received five injections once every 3.5 days. A control group was injected with the aqueous solution. Both groups comprised 10 rats.
6 Weeks after the injection of the tumoral cells autopsy was carried out. The extent of peritoneal carcinomatosis was evaluated blindly and the rats were classified in the order of increasing carcinomatosis.
The classification of the nodule size is as follows:
class 0: no tumor nodules visible;
class 1: a few nodules of size less than 0.2 cm;
class 2: nodules too many to be counted size up to 0.5 cm;
class 3: tumors in size up to 1 cm;
class 4: tumoral cavity entirely invaded by tumors, size a few cm.
The statistical significance of the anti-tumoral activity was calculated by the Kruskal-Wallis test (1) or (2) using variance analysis.

[2] = system: macrophages of C57BL/6 mice; assay: Prostaglandin E2 (PGE2) production in supernatants of macrophages, RIA; type: cell-based
Method: (§1) Bone marrow was collected from hip, femur and tibia of six week old male C57BL/6 mice.
(§2) After 7 days the mature macrophages were collected and resuspended in Dulbecco modified medium comprising 5% foetal calf serum to a concentration of 7×10^6 cells per ml. This cell suspension was mixed 1:1, (v/v) with samples diluted in the same medium and used in the biological tests performed in microplates with 70,000 cells/well (incubation at 37° C. for 22 hours, 100% humidity and 8% CO2).

[3] = system: macrophages of C57BL/6 mice; assay: Production of interleukin-6 (IL-6) in supernatants of macrophages, ELISA; type: cell-based
Method: as §1, §2
IL-6 concentration in supernatants of macrophages was determined by an ELISA test (Kit ENDOGEN, EM-IL-6).

[4] = system: protease in LAL; assay: Endotoxicity, chromogenic LAL test; type: biochemical, Limulus polyphemus; conditions: ng LPS per ng product, n = 1-10
Method: The endotoxicity and the biological activity of disaccharide A (example 1) and of disaccharide B (example 2) were determined and compared to that of lipopolysaccharide originating from Escherichia coli O111:B4 (Sigma, Product No. L3024), lipid A (Sigma, Product No. L5399; used as a starting material in example 4), and 3-O-deacylated lipid A originating from lipid A of Escherichia coli F583 (prepared as in the comparative example), but without purification by HPLC.
The endotoxicity was determined in the Limulus amoebocyte lysate (LAL) test. This test is based on the observation that endotoxins induce coagulation of the hemolymph of Limulus polyphemus.
The endotoxicity was also measured in the chromogenic test, in which the activation of a protease in LAL by LPS was measured using a chromogen (Ac-Ile-Glu-Ala-Arg-pNA; Bio Whittaker Kit No. 50-650U). The colour formation (liberation of pNA (p-nitroaniline)) was measured at 405 nm.
Samples were pre-incubated at 37° C. during 10 minutes and subsequently chromogen-comprising LAL was added. The time required for reaching an optical density of 0.2 at 405 nm was measured. The endotoxin activity was calculated in comparison to a reference curve obtained for LPS standards.
The results are expressed in table 3 as: ng LPS per ng product.

[5] = for lipid A and 3-O-deacylated lipid A activity relatively constant within the tested range, no maximum

CCCCCCCCCCCC(=O)O[C@H](CCCCCCCCCCC)CC(=O)N[C@H]1[C@H](OC[C@H]2O[C@H](OP(=O)(O)O)[C@H](NC(=O)C[C@H](O)CCCCCCCCCCC)[C@@H](O)[C@@H]2O)O[C@H](CO)[C@@H](OP(=O)(O)O)[C@@H]1O [disaccharide A, 2-Deoxy-6-O-[2-deoxy-2-[(R)-3-dodecanoyloxytetradecanoylamino]-4-O-phosphono-β-D-glucopyranosyl]-2-[(R)-3-hydroxytetradecanoylamino]-α-D-glucopyranosyl dihydrogenphosphate]
Ascitis volume, Average ([1]; 0.1 mg/kg i.p.): 7 ± 7 ml/rat | Ascitis volume, Limits ([1]; 0.1 mg/kg i.p.): 0-18 ml/rat | Number of rats with carcinomatoses of class 0 ([1]; 0.1 mg/kg i.p.): 0 | Number of rats with carcinomatoses of class 1 ([1]; 0.1 mg/kg i.p.): 2 | Number of rats with carcinomatoses of class 2 ([1]; 0.1 mg/kg i.p.): 0 | Number of rats with carcinomatoses of class 3 ([1]; 0.1 mg/kg i.p.): 4 | Number of rats with carcinomatoses of class 4 ([1]; 0.1 mg/kg i.p.): 4 | Ascitis volume, Average ([1]; 0.3 mg/kg i.p.): 2 ± 6 ml/rat | Ascitis volume, Limits ([1]; 0.3 mg/kg i.p.): 0-20 ml/rat | Number of rats with carcinomatoses of class 0 ([1]; 0.3 mg/kg i.p.): 2 | Number of rats with carcinomatoses of class 1 ([1]; 0.3 mg/kg i.p.): 3 | Number of rats with carcinomatoses of class 2 ([1]; 0.3 mg/kg i.p.): 2 | Number of rats with carcinomatoses of class 3 ([1]; 0.3 mg/kg i.p.): 2 | Number of rats with carcinomatoses of class 4 ([1]; 0.3 mg/kg i.p.): 1 | Ascitis volume, Average ([1]; 0.8 mg/kg i.p.): 0 ± 1 ml/rat | Ascitis volume, Limits ([1]; 0.8 mg/kg i.p.): 0-2 ml/rat | Number of rats with carcinomatoses of class 0 ([1]; 0.8 mg/kg i.p.): 1 | Number of rats with carcinomatoses of class 1 ([1]; 0.8 mg/kg i.p.): 6 | Number of rats with carcinomatoses of class 2 ([1]; 0.8 mg/kg i.p.): 1 | Number of rats with carcinomatoses of class 3 ([1]; 0.8 mg/kg i.p.): 1 | Number of rats with carcinomatoses of class 4 ([1]; 0.8 mg/kg i.p.): 1 | Anti-tumoral effect, in words ([1]; peritoneal carcinomatosis): dose-dependent anti-tumoral effect | PGE2 at highest concentration inducing an activity ([2]; 500 μg/ml, detection limit of the order of 80 pg/ml): 540 ± 65 pg/mL | PGE2 at lowest concentration inducing an activity ([2]; LPS 6.25, 3-O-deacylated lipid A 500, disaccharide A 16 μg/ml, detection limit of the order of 80 pg/ml): 80 ± 41 pg/mL | minimal effective concentration ([2]; Mus musculus, Macrophage, 22 h, detection limit of the order of 80 pg/ml, read-out: PGE2: Lowest concentration inducing an activity): 16 µg/mL | PGE2: Highest concentration inducing an activity ([2]; highest concentration used): 500 µg/mL | PGE2 production, in words ([2]; macrophages of C57BL/6 mice): significantly lower than for LPS; also recorded: more active than lipid A and 3-O-deacylated lipid A | IL-6 at 50% activity ([3]; 50% activity): 2850 pg/mL | minimal effective concentration ([3]; Mus musculus, Macrophage, 22 h, read-out: IL-6: Minimum activity, concentration): 0.016 µg/mL | EC50 ([3]; Mus musculus, Macrophage, read-out: IL-6: 50% activity, concentration): 1 µg/mL (≈ 0.881 µM) | IL-6 at minimum activity ([3]; at the concentration of minimum activity): 850 ± 350 pg/mL | IL-6: Maximum activity, concentration [3, 5]: 50 µg/mL | IL-6 at maximum activity [3, 5]: 5700 ± 2650 pg/mL | IL-6 production, in words ([3]; macrophages of C57BL/6 mice): significantly lower than for LPS; also recorded: more strongly than lipid A and 3-O-deacylated lipid A | Endotoxic activity in LAL, chromogen [4]: 0.0014 ± 0.0013 ng/ng

— patent US6005099A, “Glucosamine disaccharides, method for their preparation, pharmaceutical composition comprising same, and their use” (priority 1993, dated 1999)
